{
  "source": "patent US20040161415A1",
  "about": "“Antitumor and antiviral medications and method for producing the same” (Lymphotec Inc., priority 2001, published 2004)",
  "system": "EL-4 cells (mouse-derived cancer cells)",
  "experiment": "Measurement of antitumor effect: survival of C57BL/6 mice after intraperitoneal injection of EL-4 cells",
  "assay_type": "in vivo",
  "conditions": "for Number of surviving mice: C57BL/6 mice with 5×10^4 EL-4 cells i.p., reserpine 200 μg/kg s.c. every four days",
  "method": "Lymphocytes were collected from the spleen of a C57BL/6 mouse by first aseptically taking out the spleen, and mashing up the spleen with a pair of tweezers in a culture dish having a culture solution containing blood serum from cattle embryo The solution including the flaked spleen was filtrated through a mesh to obtain lymphocyte suspension. The lymphocyte suspension was transferred by 50 ml to a centrifuging tube with a pipette and centrifuged at 1500 rpm for 10 minutes.\nAfter centrifugation, supernatant fluid was removed, and a culture solution was added to obtain 2×10^6/ml of solution. The resultant solution thus obtained was transferred to a culture dish containing solid-phase anti-CD3 antibody from a mouse and further cultivated for 4 days on a continuing basis. The resultant solution was farther rinsed with phosphate buffer (occasionally abbreviated as PBS) two times, thus to prepare lymphocytes before heating treatment.\nAfter cultivating EL-4 cells (mouse-derived cancer cells) at 37° C. in an atmosphere of 5% carbon dioxide gas in a flask for 3 days, 50 ml of culture solution containing El-4 cells were transferred to a centrifuging tube with a pipette and centrifuged at 1500 rpm for 10 minutes. After centrifugation, supernatant fluid was removed, and pH-adjusted RPMI1640 culture medium was added thereto, and brought into suspension. Then, the resultant solution thus obtained was again centrifuged at 1500 rpm for 10 minutes, and hereafter, supernatant fluid was removed. Again supernatant fluid was removed, and the pH-adjusted RPMI1640 culture medium prepared previously was added thereto, and brought into suspension. Into the abdominal cavity of each C57BL/6 mouse, 5×10^4 of EL-4 cells in the ultimate solution resultantly obtained was injected to introduce the cancer cells thereinto.\nAfter introducing the EL-4 cells, 3×10^6 of activated lymphocytes treated with heat, which were prepared in Example 1 described above were administered intravenously with administering subcutaneously reserpine thereto. To each mouse of a subject group, reserpine was subcutaneously given by 200 μg/kg every four days together with the […] lymphocytes, and to another control group composed of twelve mice, only the reserpine was given by 200 μg/kg every four days. The reserpine of Rauwolfia serpentina extract was used in this embodiment, but it may be made from a compound extracted from Rauwolfia serpentina or other compounds. Although the reserpine solely may be used as mentioned above, but it may be used as a secondary agent with other primary additives.",
  "data": [
    {"smiles": "COC(=O)[C@H]1[C@H]2C[C@@H]3c4[nH]c5cc(OC)ccc5c4CCN3C[C@H]2C[C@@H](OC(=O)c2cc(OC)c(OC)c(OC)c2)[C@@H]1OC", "note": "[Resrpine, reserpine]", "values": [
      {"measurement": "Number of surviving mice", "setting": "lapsed days 23", "value": 12},
      {"measurement": "Number of surviving mice", "setting": "lapsed days 24", "value": 12},
      {"measurement": "Number of surviving mice", "setting": "lapsed days 25", "value": 12},
      {"measurement": "Number of surviving mice", "setting": "lapsed days 26", "value": 11},
      {"measurement": "Number of surviving mice", "setting": "lapsed days 27", "value": 11},
      {"measurement": "Number of surviving mice", "setting": "lapsed days 28", "value": 11},
      {"measurement": "Number of surviving mice", "setting": "lapsed days 29", "value": 9},
      {"measurement": "Number of surviving mice", "setting": "lapsed days 30", "value": 8},
      {"measurement": "Number of surviving mice", "setting": "lapsed days 31", "value": 8},
      {"measurement": "Number of surviving mice", "setting": "lapsed days 32", "value": 6},
      {"measurement": "Number of surviving mice", "setting": "lapsed days 33", "value": 6},
      {"measurement": "Number of surviving mice", "setting": "lapsed days 34", "value": 4},
      {"measurement": "Number of surviving mice", "setting": "lapsed days 35", "value": 3},
      {"measurement": "antitumor effect (survival rate of mice observed with time)", "setting": "result in words, summary of Table 1, EL-4 bearing C57BL/6 mice", "value": "brings about an antitumor effect"}
    ]}
  ]
}
